Laboratory results from patent US20160090556A1, “PRODUCTS COMPRISING MALODOR REDUCTION MATERIALS” (The Procter & Gamble Company, priority 2014, published 2016).
Like-named read-outs stand apart in the source and are kept apart here.

Assay: Liquid dish neat product liquid-air partition coefficient
Assay type: physicochemical
[1] = class code letter within Comment Code

SMILES | Log of liquid dish neat product liquid-air partition coefficient (Comment Code K/L) [1] | Comment Code: Log of liquid dish neat product liquid-air partition coefficient (code letters K, L) | Log of liquid dish neat product liquid-air partition coefficient (Comment Code K/L) | further results
CCCCCCC(=O)OCc1ccco1 [Material 339] | K (Log of liquid dish neat product liquid-air partition coefficient greater than or equal to −7) | – | – | –
CCCC(=O)OC1CC2CC1C1CC=CC21 (stereo not shown) [Material 484] | K (Log of liquid dish neat product liquid-air partition coefficient greater than or equal to −7) | K (Log of liquid dish neat product liquid-air partition coefficient greater than or equal to −7) | – | –
C=C(OC(C)=O)c1ccccc1 [Material 931] | – | K (Log of liquid dish neat product liquid-air partition coefficient greater than or equal to −7) | – | –
C=CCCCCCCCCC(=O)OCCC(C)C [Material 234] | K (Log of liquid dish neat product liquid-air partition coefficient greater than or equal to −7) | – | – | –
C=C(C)C1CCC(C)C(OC(C)=O)C1 (stereo not shown) [Material 444] | K (Log of liquid dish neat product liquid-air partition coefficient greater than or equal to −7) | – | – | –
Cc1ccc2c(c1)CC(C)(CO)C2 (stereo not shown) [Material 161] | K (Log of liquid dish neat product liquid-air partition coefficient greater than or equal to −7) | – | – | –
CC1=CC(C)C2(CCCC(C)(C)C2=O)CC1 (stereo not shown) [Material 1022] | – | K (Log of liquid dish neat product liquid-air partition coefficient greater than or equal to −7) | K (Log of liquid dish neat product liquid-air partition coefficient greater than or equal to −7) | –
CC(C=O)Cc1ccc2c(c1)OCO2 (stereo not shown) [Material 288] | K (Log of liquid dish neat product liquid-air partition coefficient greater than or equal to −7) | – | – | –
CCCCCCCCC=CC=O [Material 828] | – | – | K (Log of liquid dish neat product liquid-air partition coefficient greater than or equal to −7) | –
CCCCCCCCCCCC#N [Material 498] | K (Log of liquid dish neat product liquid-air partition coefficient greater than or equal to −7) | – | – | –
CC12CCCC(C)(CC1)C2=NO [Material 921] | – | K (Log of liquid dish neat product liquid-air partition coefficient greater than or equal to −7) | – | –
CC(C)Cc1ccc2ccccc2n1 [Material 849] | – | – | K (Log of liquid dish neat product liquid-air partition coefficient greater than or equal to −7) | –
C=CC(C)(C#N)Cc1ccccc1 (stereo not shown) [Material 504] | – | K (Log of liquid dish neat product liquid-air partition coefficient greater than or equal to −7) | – | –
CC1(C)C2=C(CO)CCC(C)(C)C23CCC1C3 (stereo not shown) [Material 248] | – | K (Log of liquid dish neat product liquid-air partition coefficient greater than or equal to −7) | – | –
CC(C)=CCCC1=CCC(C#N)CC1 (stereo not shown) [Material 660] | – | – | K (Log of liquid dish neat product liquid-air partition coefficient greater than or equal to −7) | –
CC1=CCCC(C)=CCC(C)(C)C=CC1 [Material 706] | – | – | K (Log of liquid dish neat product liquid-air partition coefficient greater than or equal to −7) | –
CC1CCC2(O)C(C)(C)C3CCC2(C)C1C3 (stereo not shown) [Material 933] | – | K (Log of liquid dish neat product liquid-air partition coefficient greater than or equal to −7) | K (Log of liquid dish neat product liquid-air partition coefficient greater than or equal to −7) | –
CC1C2CC(CC2C2CCC(O)CC2)C1(C)C (stereo not shown) [Material 230] | K (Log of liquid dish neat product liquid-air partition coefficient greater than or equal to −7) | K (Log of liquid dish neat product liquid-air partition coefficient greater than or equal to −7) | – | –
CC(C)=CCC/C(C)=C/CC/C(C)=C/CO [Material 1065] | – | – | K (Log of liquid dish neat product liquid-air partition coefficient greater than or equal to −7) | –
CC(=O)c1cc(C(C)(C)C)cc2c1CCC2(C)C [Material 563] | – | – | K (Log of liquid dish neat product liquid-air partition coefficient greater than or equal to −7) | –
CCCCCCCCC=CC#N [Material 827] | – | – | K (Log of liquid dish neat product liquid-air partition coefficient greater than or equal to −7) | –
O=C1CCCCCCCCCCCCCC1 [Material 480] | K (Log of liquid dish neat product liquid-air partition coefficient greater than or equal to −7) | – | – | –
CC(=O)OC(C)CCC=C(C)CCC=C(C)C (racemic) [Material 881] | – | – | K (Log of liquid dish neat product liquid-air partition coefficient greater than or equal to −7) | –

SMILES | Log of liquid dish neat product liquid-air partition coefficient (Comment Code K/L) [1] | Comment Code: Log of liquid dish neat product liquid-air partition coefficient (code letters K, L) | Log of liquid dish neat product liquid-air partition coefficient (Comment Code K/L) | further results
CCC(=O)OC1CC2CC1C1CC=CC21 (stereo not shown) [Material 919] | – | K (Log of liquid dish neat product liquid-air partition coefficient greater than or equal to −7) | K (Log of liquid dish neat product liquid-air partition coefficient greater than or equal to −7) | –
CCCCC/C=C/C=C\C(=O)OCC [Material 942] | – | – | K (Log of liquid dish neat product liquid-air partition coefficient greater than or equal to −7) | –
CC(=O)CCC1C(C)=CCCC1(C)C (stereo not shown) [Material 448] | – | K (Log of liquid dish neat product liquid-air partition coefficient greater than or equal to −7) | – | –
CCc1ccc(CC(C)(C)C#N)cc1 [Material 361] | K (Log of liquid dish neat product liquid-air partition coefficient greater than or equal to −7) | – | – | –
CC1C(=O)CC2(C)CCCC(C)(C)C23CC13 (stereo not shown) [Material 804] | – | K (Log of liquid dish neat product liquid-air partition coefficient greater than or equal to −7) | K (Log of liquid dish neat product liquid-air partition coefficient greater than or equal to −7) | –
C=C(C)C1CCC2(C)CCCC(=C)C2C1 (stereo not shown) [Material 615] | – | – | K (Log of liquid dish neat product liquid-air partition coefficient greater than or equal to −7) | –
CC(O)C(C)/C=C1\C[C@H]2C[C@@H]1[C@@H]1C=CC[C@H]21 (stereo partly shown) [Material 359] | K (Log of liquid dish neat product liquid-air partition coefficient greater than or equal to −7) | K (Log of liquid dish neat product liquid-air partition coefficient greater than or equal to −7) | – | –
CC1CC2CCC3C(C2O1)C(C)(C)C(C)C3(C)C (stereo not shown) [Material 1097] | – | K (Log of liquid dish neat product liquid-air partition coefficient greater than or equal to −7) | K (Log of liquid dish neat product liquid-air partition coefficient greater than or equal to −7) | –
CC1=CCC(C(C)CC2CCCC2=O)CC1 (stereo not shown) [Material 69] | K (Log of liquid dish neat product liquid-air partition coefficient greater than or equal to −7) | – | – | –
CC(CO)CCCc1ccccc1 (stereo not shown) [Material 1012] | – | – | K (Log of liquid dish neat product liquid-air partition coefficient greater than or equal to −7) | –
CCC1=CCCC(C)(C)C12C=CC(C)O2 (stereo not shown) [Material 413] | K (Log of liquid dish neat product liquid-air partition coefficient greater than or equal to −7) | – | – | –
CC(=O)OCC=C(C)CCC=C(C)CCC=C(C)C [Material 368] | K (Log of liquid dish neat product liquid-air partition coefficient greater than or equal to −7) | – | – | –
C[C@@H]1CC[C@H]2[C@@H]1[C@H]1[C@@H](CC[C@]2(C)O)C1(C)C [Material 1140] | – | K (Log of liquid dish neat product liquid-air partition coefficient greater than or equal to −7) | – | Comment Code: Log of liquid dish neat product liquid-air partition coefficient (codes K/L of the Comment Code, Table 1): K (Log of liquid dish neat product liquid-air partition coefficient greater than or equal to −7)
CC(=O)/C=C/C1C(C)CCC(C)C1(C)C (stereo not shown) [Material 71] | K (Log of liquid dish neat product liquid-air partition coefficient greater than or equal to −7) | – | – | –
Cc1ccc(CC(C)C=O)cc1 (stereo not shown) [Material 742] | – | – | K (Log of liquid dish neat product liquid-air partition coefficient greater than or equal to −7) | –
CC(O)CCc1ccccc1 (stereo not shown) [Material 98] | K (Log of liquid dish neat product liquid-air partition coefficient greater than or equal to −7) | – | – | –
CC1(O)CCC2=C(CCCC2(C)C)C1 (stereo not shown) [Material 675] | – | – | K (Log of liquid dish neat product liquid-air partition coefficient greater than or equal to −7) | –
COc1ccc(CCC(C)=O)cc1 [Material 803] | – | – | K (Log of liquid dish neat product liquid-air partition coefficient greater than or equal to −7) | –
CCCCCOC(=O)c1ccccc1 [Material 672] | – | K (Log of liquid dish neat product liquid-air partition coefficient greater than or equal to −7) | – | –
O=C1CCCC=CCCCCCCCCCC1 [Material 788] | – | K (Log of liquid dish neat product liquid-air partition coefficient greater than or equal to −7) | K (Log of liquid dish neat product liquid-air partition coefficient greater than or equal to −7) | –
CC=Cc1ccc(O)c(OC)c1 [Material 214] | – | K (Log of liquid dish neat product liquid-air partition coefficient greater than or equal to −7) | – | –
CC/C=C\C/C=C\CCO [Material 546] | K (Log of liquid dish neat product liquid-air partition coefficient greater than or equal to −7) | – | – | –
